Measured values as given in US9062041B2 (Bayer Intellectual Property GmbH, priority 2011, dated 2015).

Key:
Format in all cases: cell-based
[1] = target: EP2 subtype of the human PGE2 receptor (Homo sapiens, UniProt P43116); test: cAMP antagonism test on the human EP2 receptor (HTRF cAMP detection); conditions: hEP2 receptor, read-out: Antagonism hEP2 IC50
In short: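 Read-out is a competitive HTRF for cAMP: lysate cAMP displaces cAMP-d2 from Eu cryptate-labelled antibody, and antagonism raises the 665/620 nm ratio. Compound (0.8 nM–16.5 μM) added to EP2 cells 20 min at RT before 60 min PGE2 challenge (3× stock 1.5 nM) with IBMX, followed by 20 min lysis.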

[2] = target: EP4 subtype of the human PGE2 receptor (Homo sapiens, UniProt P35408); test: cAMP antagonism test on the human EP4 receptor (HTRF cAMP detection); conditions: selectivity towards hEP4, IC50 measured by cAMP antagonism test
In short: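 Competitive HTRF cAMP read-out (cAMP-d2 vs Eu-cryptate anti-cAMP antibody, 665/620 nm ratio) on lysed human EP4 cells. Compound (0.8 nM–16.5 μM) applied 20 min at RT before 60 min PGE2 challenge (3× solution 0.3 nM, IBMX present); 20 min lysis precedes reading.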

[3] = target: T1, human PGD receptor (Homo sapiens, UniProt Q13258); test: cAMP antagonism test on the human prostaglandin D receptor (HTRF cAMP detection); conditions: selectivity towards hDP, IC50 measured by cAMP antagonism test
T1 sequence (Q13258 1-359): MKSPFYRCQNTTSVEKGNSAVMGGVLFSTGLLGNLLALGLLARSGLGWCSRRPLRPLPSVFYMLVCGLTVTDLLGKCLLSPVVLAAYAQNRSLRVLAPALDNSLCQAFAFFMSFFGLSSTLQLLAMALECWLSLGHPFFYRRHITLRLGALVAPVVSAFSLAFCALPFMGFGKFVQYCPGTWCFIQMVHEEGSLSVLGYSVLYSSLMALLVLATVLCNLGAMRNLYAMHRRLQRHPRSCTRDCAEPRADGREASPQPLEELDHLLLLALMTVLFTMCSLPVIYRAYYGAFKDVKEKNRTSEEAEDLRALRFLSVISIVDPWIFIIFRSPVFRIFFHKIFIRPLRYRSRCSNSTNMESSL
In short: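 HTRF competition read-out (665/620 nm ratio ×10000), where higher FRET means less cAMP, i.e. antagonism. Compounds (0.8 nM–16.5 μM) were preincubated 20 min at RT with cells and cAMP-d2, PGD2 (3× solution, 6 nM) in IBMX-containing PBS added for 30 min at RT, then cells lysed 20 min.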

EP4 subtype of the human PGE2 receptor, sequence (P35408 whole entry): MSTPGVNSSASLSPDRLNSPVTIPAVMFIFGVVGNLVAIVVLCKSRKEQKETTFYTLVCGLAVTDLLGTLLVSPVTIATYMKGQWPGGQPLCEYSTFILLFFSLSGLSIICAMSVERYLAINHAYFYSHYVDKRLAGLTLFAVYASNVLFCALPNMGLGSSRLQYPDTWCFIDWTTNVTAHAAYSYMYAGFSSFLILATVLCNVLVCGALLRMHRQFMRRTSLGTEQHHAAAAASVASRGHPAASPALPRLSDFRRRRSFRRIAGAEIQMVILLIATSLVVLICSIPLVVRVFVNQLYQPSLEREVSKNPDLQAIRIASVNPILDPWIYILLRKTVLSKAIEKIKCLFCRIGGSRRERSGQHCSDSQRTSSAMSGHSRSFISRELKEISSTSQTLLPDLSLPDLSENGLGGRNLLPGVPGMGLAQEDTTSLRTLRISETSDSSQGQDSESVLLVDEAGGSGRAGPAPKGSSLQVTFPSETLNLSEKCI
EP2 subtype of the human PGE2 receptor, sequence (P43116 whole entry): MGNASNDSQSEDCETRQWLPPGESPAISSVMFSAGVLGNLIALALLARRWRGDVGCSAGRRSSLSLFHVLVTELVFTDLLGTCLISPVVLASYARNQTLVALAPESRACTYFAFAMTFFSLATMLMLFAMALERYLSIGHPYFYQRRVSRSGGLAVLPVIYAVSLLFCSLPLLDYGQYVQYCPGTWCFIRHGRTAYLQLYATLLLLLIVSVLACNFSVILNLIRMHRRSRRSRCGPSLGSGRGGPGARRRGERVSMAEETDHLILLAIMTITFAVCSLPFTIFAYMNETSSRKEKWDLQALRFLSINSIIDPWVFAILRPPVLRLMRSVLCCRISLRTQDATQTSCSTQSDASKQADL

IC50 [1] [µM]	Selectivity hEP2/hEP4 [2]	Selectivity hEP2/hDP [3]	Compound
0.0155	xxx (xxx > 100)	xxx (xxx > 100)	COCCNC(=O)c1ccc2nn(CC3CN(C(=O)c4ccc(Cl)cc4F)C3)cc2c1C [Example 121, 2-{[1-(4-chloro-2-fluorobenzoyl)azetidin-3-yl]methyl}-N-(2-methoxyethyl)-4-methyl-2H-indazol-5-carboxamide]
0.0286	xxx (xxx > 100)	xxx (xxx > 100)	COCCNC(=O)c1ccc2nn(CC3CN(C(=O)c4ccc(C(F)(F)F)c(F)c4)C3)cc2c1C [Example 122, 2-({1-[3-fluoro-4-(trifluoromethyl)benzoyl]azetidin-3-yl}methyl)-N-(2-methoxy-ethyl)-4-methyl-2H-indazol-5-carboxamide]
0.00892	xxx (xxx > 100)	xxx (xxx > 100)	COCCNC(=O)c1ccc2nn(CC3CN(C(=O)c4ccc(Cl)c(C(F)(F)F)c4)C3)cc2c1C [Example 123, 2-({1-[4-chloro-3-(trifluoromethyl)benzoyl]azetidin-3-yl}methyl)-N-(2-methoxy-ethyl)-4-methyl-2H-indazol-5-carboxamide]
0.00799	xxx (xxx > 100)	xxx (xxx > 100)	COCCNC(=O)c1ccc2nn(CC3CN(C(=O)c4ccc(C5CC5)cc4)C3)cc2c1C [Example 124, 2-{[1-(4-cyclopropylbenzoyl)azetidin-3-yl]methyl}-N-(2-methoxyethyl)-4-methyl-2H-indazol-5-carboxamide]
0.00366	xxx (xxx > 100)	xxx (xxx > 100)	COCCNC(=O)c1ccc2nn(CC3CN(C(=O)c4ccc(Oc5ccc(C(F)(F)F)cc5)cc4)C3)cc2c1C [Example 125, N-(2-methoxyethyl)-4-methyl-2-[(1-{4-[4-(trifluoromethyl)phenoxy]benzoyl}azetidin-3-yl)methyl]-2H-indazol-5-carboxamide]
0.0212	xxx (xxx > 100)	xxx (xxx > 100)	Cc1c(C(=O)NCCN2CCC(F)(F)C2)ccc2nn(CC3CN(C(=O)c4ccc(Cl)cc4)C3)cc12 [Example 126, 2-{[1-(4-chlorobenzoyl)azetidin-3-yl]methyl}-N-[2-(3,3-difluoropyrrolidin-1-yl)ethyl]-4-methyl-2H-indazol-5-carboxamide]
0.0556	xxx (xxx > 100)	xxx (xxx > 100)	Cc1c(C(=O)NCCSC(F)(F)F)ccc2nn(CC3CN(C(=O)c4ccc(Cl)cc4)C3)cc12 [Example 127, 2-{[1-(4-chlorobenzoyl)azetidin-3-yl]methyl}-4-methyl-N-{2-[(trifluoromethyl)sulphanyl]ethyl}-2H-indazol-5-carboxamide]
0.471	xx (xx: 10-100)	xx (xx: 10-100)	Cc1c(C(=O)NCCN2CCOCC2)ccc2nn(CC3CN(C(=O)c4ccc(Cl)cc4)C3)cc12 [Example 128, 2-{[1-(4-chlorobenzoyl)azetidin-3-yl]methyl}-4-methyl-N-(2-morpholinoethyl)-2H-indazol-5-carboxamide]
0.309	xx (xx: 10-100)	xx (xx: 10-100)	Cc1c(C(=O)NCC(F)(F)F)ccc2nn(CC3CN(C(=O)c4ccc(Cl)cc4)C3)cc12 [Example 129, 2-{[1-(4-chlorobenzoyl)azetidin-3-yl]methyl}-4-methyl-N-(2,2,2-trifluoroethyl)-2H-indazol-5-carboxamide]
0.241	xx (xx: 10-100)	xx (xx: 10-100)	Cc1c(C(=O)NCC(F)(F)F)ccc2nn(CC3CN(C(=O)c4ccc(OC(F)(F)F)cc4)C3)cc12 [Example 130, 4-methyl-N-(2,2,2-trifluoroethyl)-2-({1-[4-(trifluoromethoxy)benzoyl]azetidin-3-yl}methyl)-2H-indazol-5-carboxamide]
0.228	xx (xx: 10-100)	xx (xx: 10-100)	Cc1c(C(=O)NCC(F)(F)F)ccc2nn(CC3CN(C(=O)c4ccc(C(F)(F)F)cc4F)C3)cc12 [Example 131, 2-({1-[2-fluoro-4-(trifluoromethyl)benzoyl]azetidin-3-yl}methyl)-4-methyl-N-(2,2,2-trifluoroethyl)-2H-indazol-5-carboxamide]
0.109	xxx (xxx > 100)	xxx (xxx > 100)	Cc1c(C(=O)NCC(F)(F)F)ccc2nn(CC3CN(C(=O)c4ccc(S(F)(F)(F)(F)F)cc4)C3)cc12 [Example 132, 4-methyl-2-({1-[4-(pentafluoro-λ^6-sulphanyl)benzoyl]azetidin-3-yl}methyl)-N-(2,2,2-trifluoroethyl)-2H-indazol-5-carboxamide]
0.0419	xxx (xxx > 100)	xxx (xxx > 100)	Cc1c(C(=O)NCCSC(F)(F)F)ccc2nn(CC3CN(C(=O)c4ccc(OC(F)(F)F)cc4)C3)cc12 [Example 133, 4-methyl-2-({1-[4-(trifluoromethoxy)benzoyl]azetidin-3-yl}methyl)-N-{2-[(trifluoromethyl)sulphanyl]ethyl}-2H-indazol-5-carboxamide]
0.0565	xxx (xxx > 100)	xxx (xxx > 100)	Cc1c(C(=O)NCCSC(F)(F)F)ccc2nn(CC3CN(C(=O)c4ccc(C(F)(F)F)cc4F)C3)cc12 [Example 134, 2-({1-[2-fluoro-4-(trifluoromethyl)benzoyl]azetidin-3-yl}methyl)-4-methyl-N-{2-[(trifluoromethyl)sulphanyl]ethyl}-2H-indazol-5-carboxamide]
0.0195	xxx (xxx > 100)	xxx (xxx > 100)	Cc1c(C(=O)NCCSC(F)(F)F)ccc2nn(CC3CN(C(=O)c4ccc(S(F)(F)(F)(F)F)cc4)C3)cc12 [Example 135, 4-methyl-2-({1-[4-(pentafluoro-λ^6-sulphanyl)benzoyl]azetidin-3-yl}methyl)-N-{2-[(trifluoromethyl)sulphanyl]ethyl}-2H-indazol-5-carboxamide]
0.00659	xxx (xxx > 100)	xxx (xxx > 100)	Cc1c(C(=O)NCCOC2CC2)ccc2nn(CC3CN(C(=O)c4ccc(OC(F)(F)F)cc4)C3)cc12 [Example 136, N-[2-(cyclopropyloxy)ethyl]-4-methyl-2-({1-[4-(trifluoromethoxy)benzoyl]azetidin-3-yl}methyl)-2H-indazol-5-carboxamide]
0.00765	xxx (xxx > 100)	xxx (xxx > 100)	Cc1c(C(=O)NCCOC2CCC2)ccc2nn(CC3CN(C(=O)c4ccc(OC(F)(F)F)cc4)C3)cc12 [Example 137, N-[2-(cyclobutyloxy)ethyl]-4-methyl-2-({1-[4-(trifluoromethoxy)benzoyl]azetidin-3-yl}methyl)-2H-indazol-5-carboxamide]
0.0296	xxx (xxx > 100)	xxx (xxx > 100)	Cc1c(C(=O)NCCOCC2CC2)ccc2nn(CC3CN(C(=O)c4ccc(Cl)cc4)C3)cc12 [Example 149, 2-{[1-(4-chlorobenzoyl)azetidin-3-yl]methyl}-N-[2-(cyclopropylmethoxy)ethyl]-4-methyl-2H-indazol-5-carboxamide]
0.0128	xxx (xxx > 100)	xxx (xxx > 100)	Cc1c(C(=O)NCCOCC2CC2)ccc2nn(CC3CN(C(=O)c4ccc(Oc5ccc(F)cc5)cc4)C3)cc12 [Example 150, N-[2-(cyclopropylmethoxy)ethyl]-2-({1-[4-(4-fluorophenoxy)benzoyl]azetidin-3-yl}methyl)-4-methyl-2H-indazol-5-carboxamide]
0.0485	xxx (xxx > 100)	xxx (xxx > 100)	Cc1ccc(C(=O)N2CC(Cn3cc4c(C)c(C(=O)NCCOCC5CC5)ccc4n3)C2)cc1 [Example 151, N-[2-(cyclopropylmethoxy)ethyl]-4-methyl-2-{[1-(4-methylbenzoyl)azetidin-3-yl]methyl}-2H-indazol-5-carboxamide]
0.0333	xxx (xxx > 100)	xxx (xxx > 100)	Cc1c(C(=O)NCCOC(F)(F)F)ccc2nn(CC3CN(C(=O)c4ccc(Cl)cc4)C3)cc12 [Example 152, 2-{[1-(4-chlorobenzoyl)azetidin-3-yl]methyl}-4-methyl-N-[2-(trifluoromethoxy)ethyl]-2H-indazol-5-carboxamide]
